Laboratory results as given in patent US10131652B2, “Pyrimidinyloxy benzene derivatives as herbicides” (E. I. DU PONT DE NEMOURS AND COMPANY, priority 2014, dated 2018).

Columns and labels:
Test in all cases: Test F pre-/postemergence plant response
Type in all cases: in vivo
Details in all cases: scale 0 to 100
[1] = test system: arrowleaf sida (Sida rhombifolia)
Text: (§1) Seeds of plant species selected from corn (Zea mays), soybean (Glycine max), velvetleaf (Abutilon theophrasti), lambsquarters (Chenopodium album), wild poinsettia (Euphorbia heterophylla), palmer pigweed (Amaranthus palmeri), waterhemp (common waterhemp, Amaranthus rudis), surinam grass (Brachiaria decumbens), large (Lg) crabgrass (Digitaria sanguinalis), Brazilian crabgrass (Digitaria horizontalis), fall panicum (Panicum dichotomiflorum), giant foxtail (Setaria faberii), green foxtail (Setaria viridis), goosegrass (Eleusine indica), johnsongrass (Sorghum halepense), ragweed (common ragweed, Ambrosia elatior), barnyardgrass (Echinochloa crus-galli), sandbur (southern sandbur, Cenchrus echinatus), arrowleaf sida (Sida rhombifolia), Italian ryegrass (Lolium multiflorum), dayflower (Virginia (VA) dayflower, Commelina virginica), field bindweed (Convolvulus arvensis), cocklebur (common cocklebur, Xanthium strumarium), momingglory (Ipomoea coccinea), nightshade (eastern black nightshade, Solanum ptycanthum), kochia (Kochia scoparia), yellow nutsedge (Cyperus esculentus), and hairy beggarticks (Bidens pilosa), were planted into a silt loam soil and treated preemergence with test chemicals formulated in a non-phytotoxic solvent mixture which included a surfactant.
(§2) At the same time, plants from these crop and weed species and also waterhemp_RES1, (ALS & Triazine resistant common waterhemp, Amaranthus rudis), and waterhemp_RES2, (ALS & HPPD resistant common waterhemp, Amaranthus rudis) were treated with postemergence applications of test chemicals formulated in the same manner. Plants ranged in height from 2 to 18 cm for postemergence treatments (1- to 4-leaf stage).
(§3) Treated plants and controls were maintained in a greenhouse for 14 to 21 days, after which time all species were compared to controls and visually evaluated. Plant response ratings, summarized in Table F, are based on a scale of 0 to 100 where 0 is no effect and 100 is complete control. A dash (-) response means no test result.

[2] = test system: sandbur (southern sandbur, Cenchrus echinatus)
Text: as §1, §2, §3

corn (Zea mays) = test system: corn (Zea mays)
Text: as §1, §2, §3

[3] = test system: palmer pigweed (Amaranthus palmeri)
Text: as §1, §2, §3

[4] = test system: Italian ryegrass (Lolium multiflorum)
Text: as §1, §2, §3

kochia (Kochia scoparia) = test system: kochia (Kochia scoparia)
Text: as §1, §2, §3

[5] = test system: fall panicum (Panicum dichotomiflorum)
Text: as §1, §2, §3

[6] = test system: wild poinsettia (Euphorbia heterophylla)
Text: as §1, §2, §3

soybean (Glycine max) = test system: soybean (Glycine max)
Text: as §1, §2, §3

[7] = test system: Brazilian crabgrass (Digitaria horizontalis)
Text: as §1, §2, §3

Row | Structure (SMILES) | Plant response rating, Arrowleaf Sida ([1]; 16 g ai/ha Postemergence) | Plant response rating, Arrowleaf Sida ([1]; 31 g ai/ha Postemergence) | Plant response rating, Arrowleaf Sida ([1]; 62 g ai/ha Postemergence) | Plant response rating, Arrowleaf Sida ([1]; 125 g ai/ha Postemergence) | Plant response rating, Sandbur ([2]; 16 g ai/ha Postemergence) | Plant response rating, Sandbur ([2]; 31 g ai/ha Postemergence) | Plant response rating, Sandbur ([2]; 62 g ai/ha Postemergence) | Plant response rating, Sandbur ([2]; 125 g ai/ha Postemergence) | Plant response rating, Corn (corn (Zea mays); 16 g ai/ha Postemergence) | Plant response rating, Corn (corn (Zea mays); 31 g ai/ha Postemergence) | Plant response rating, Corn (corn (Zea mays); 62 g ai/ha Postemergence) | Plant response rating, Corn (corn (Zea mays); 125 g ai/ha Postemergence) | Plant response rating, Pigweed, Palmer ([3]; 16 g ai/ha Postemergence) | Plant response rating, Pigweed, Palmer ([3]; 31 g ai/ha Postemergence) | Plant response rating, Pigweed, Palmer ([3]; 62 g ai/ha Postemergence) | Plant response rating, Pigweed, Palmer ([3]; 125 g ai/ha Postemergence) | Plant response rating, Ryegrass, Italian ([4]; 16 g ai/ha Postemergence) | Plant response rating, Ryegrass, Italian ([4]; 31 g ai/ha Postemergence) | Plant response rating, Ryegrass, Italian ([4]; 62 g ai/ha Postemergence) | Plant response rating, Ryegrass, Italian ([4]; 125 g ai/ha Postemergence) | also measured
1 | Fc1ccc(Oc2ncc(Cl)cn2)c(-c2cc(C(F)(Cl)Cl)on2)c1 [Compound 221] | 80 | 90 | 98 | 98 | 0 | 0 | 0 | 0 | 5 | 10 | 10 | 20 | 85 | 90 | 100 | 100 | 0 | 0 | 0 | 5 | Plant response rating, Kochia (kochia (Kochia scoparia); 16 g ai/ha Postemergence): 95; Plant response rating, Kochia (kochia (Kochia scoparia); 31 g ai/ha Postemergence): 98; Plant response rating, Kochia (kochia (Kochia scoparia); 62 g ai/ha Postemergence): 100; Plant response rating, Kochia (kochia (Kochia scoparia); 125 g ai/ha Postemergence): 100; Plant response rating, Panicum, Fall ([5]; 16 g ai/ha Postemergence): 10; Plant response rating, Panicum, Fall ([5]; 31 g ai/ha Postemergence): 15; Plant response rating, Panicum, Fall ([5]; 62 g ai/ha Postemergence): 40; Plant response rating, Panicum, Fall ([5]; 125 g ai/ha Postemergence): 60; Plant response rating, Poinsettia, Wild ([6]; 16 g ai/ha Postemergence): 65; Plant response rating, Poinsettia, Wild ([6]; 31 g ai/ha Postemergence): 75; Plant response rating, Poinsettia, Wild ([6]; 62 g ai/ha Postemergence): 70; Plant response rating, Poinsettia, Wild ([6]; 125 g ai/ha Postemergence): 80; Plant response rating, Soybean (soybean (Glycine max); 16 g ai/ha Postemergence): 60; Plant response rating, Soybean (soybean (Glycine max); 31 g ai/ha Postemergence): 95; Plant response rating, Soybean (soybean (Glycine max); 62 g ai/ha Postemergence): 98; Plant response rating, Soybean (soybean (Glycine max); 125 g ai/ha Postemergence): 95; Plant response rating, Crabgrass, Brazil ([7]; 16 g ai/ha Postemergence): 20; Plant response rating, Crabgrass, Brazil ([7]; 31 g ai/ha Postemergence): 25; Plant response rating, Crabgrass, Brazil ([7]; 62 g ai/ha Postemergence): 45; Plant response rating, Crabgrass, Brazil ([7]; 125 g ai/ha Postemergence): 75
2 | FC(F)c1cc(-c2ccccc2Oc2ncc(Br)cn2)on1 [Compound 212] | 75 | 70 | 85 | 100 | 0 | 0 | 0 | 10 | 0 | 0 | 0 | 0 | 30 | 75 | 100 | 98 | 0 | 0 | 0 | 0 | Plant response rating, Kochia (kochia (Kochia scoparia); 16 g ai/ha Postemergence): 50; Plant response rating, Kochia (kochia (Kochia scoparia); 31 g ai/ha Postemergence): 90; Plant response rating, Kochia (kochia (Kochia scoparia); 62 g ai/ha Postemergence): 100; Plant response rating, Kochia (kochia (Kochia scoparia); 125 g ai/ha Postemergence): 100; Plant response rating, Panicum, Fall ([5]; 16 g ai/ha Postemergence): 0; Plant response rating, Panicum, Fall ([5]; 31 g ai/ha Postemergence): 0; Plant response rating, Panicum, Fall ([5]; 62 g ai/ha Postemergence): 10; Plant response rating, Panicum, Fall ([5]; 125 g ai/ha Postemergence): 10; Plant response rating, Poinsettia, Wild ([6]; 16 g ai/ha Postemergence): 35; Plant response rating, Poinsettia, Wild ([6]; 31 g ai/ha Postemergence): 40; Plant response rating, Poinsettia, Wild ([6]; 62 g ai/ha Postemergence): 50; Plant response rating, Poinsettia, Wild ([6]; 125 g ai/ha Postemergence): 60; Plant response rating, Soybean (soybean (Glycine max); 16 g ai/ha Postemergence): 50; Plant response rating, Soybean (soybean (Glycine max); 31 g ai/ha Postemergence): 50; Plant response rating, Soybean (soybean (Glycine max); 62 g ai/ha Postemergence): 75; Plant response rating, Soybean (soybean (Glycine max); 125 g ai/ha Postemergence): 95; Plant response rating, Crabgrass, Brazil ([7]; 16 g ai/ha Postemergence): 20; Plant response rating, Crabgrass, Brazil ([7]; 31 g ai/ha Postemergence): 30; Plant response rating, Crabgrass, Brazil ([7]; 62 g ai/ha Postemergence): 30; Plant response rating, Crabgrass, Brazil ([7]; 125 g ai/ha Postemergence): 35
